Laboratory results reported in patent US20190072541A1, “BIOMARKERS FOR TREATMENT OF ALOPECIA AREATA” (THE TRUSTEES OF COLUMBIA UNIVERSITY IN THE CITY OF NEW YORK, priority 2015, published 2019).

Key:
[1] = tested on: ALADIN IFN and CTL signatures; assay: ALADIN scores of scalp biopsies in tofacitinib-treated AA patient; format: in vivo, human; conditions: baseline vs 4 weeks of treatment
Procedure: (§1) Punch biopsies of the scalp (FIG. 17) and blood draws were performed at baseline and after 4 weeks of treatment to monitor gene expression and biomarker changes. […] In addition, microarray analysis was performed on the skin biopsy samples.

CXCL10 = assay: Serum CXCL10 ELISA in tofacitinib-treated AA patient; format: in vivo, human; conditions: baseline vs 4 weeks of treatment
Procedure: as §1

dermal sheath cells = assay: CTL killing of dermal sheath cells; format: cell-based, mouse
C3H/HeJ grafted mice = assay: Prevention of AA in C3H/HeJ skin graft model, systemic treatment from time of grafting; format: in vivo, mouse; conditions: systemic administration from the time of grafting
From the text: IL-2 and IL-15 are well-known drivers of cytotoxic activity by IFN-γ-producing CD8+ effector T cells and NK cells and have been implicated in the induction and/or maintenance of autoreactive CD8+ T cells. To test the efficacy of IFN-γ- and γ c-targeted therapies in vivo, the inventors used the well-established graft model of AA, in which skin grafts from mice with spontaneous AA are transferred onto the backs of unaffected 10-week-old recipient C3H/HeJ mice. In this model, AA develops reliably in 95-100% of grafted recipients within 6-10 weeks, allowing us to test interventions aimed at either preventing or reversing disease.
C3H/HeJ mouse strain (Jackson Laboratories, Bar Harbor, Me.) was used for all animal studies. Only female mice were used. Mouse recipients of alopecic skin grafts were aged 7-10 weeks at the time of grafting. For prevention experiments, drug administration began the day after grafting. For systemic treatment studies, drug administration was initiated approximately 3 months after mice lost their hair. For topical treatment studies, drug administration was initiated 20 weeks following grafting. […]
For the prevention experiments, a time-to-event survival analysis for interval censored data was performed. […] Hair growth index was calculated.

[2] = tested on: C3H/HeJ grafted mice with established AA; assay: Systemic treatment of established AA in grafted C3H/HeJ mice; format: in vivo, mouse
From the text: C3H/HeJ mouse strain (Jackson Laboratories, Bar Harbor, Me.) was used for all animal studies. Only female mice were used. Mouse recipients of alopecic skin grafts were aged 7-10 weeks at the time of grafting. For prevention experiments, drug administration began the day after grafting. […] For topical treatment studies, drug administration was initiated 20 weeks following grafting. All animal procedures were done according to protocols approved by the Columbia University Medical Center Institutional Animal Care and Use Committee.

[3] = tested on: C3H/HeJ mice with long-standing AA; assay: Topical treatment of established AA in grafted C3H/HeJ mice; format: in vivo, mouse; conditions: applied to back skin
From the text: This experiment was repeated three times. […] NS, not significant. […] Scale bar, 100 μm. […] Scale bar, 200 μm.
Only female mice were used.

[4] = tested on: CTL effectors from C3H/HeJ mice; assay: IL-15 responses in cultured CTL effectors; format: cell-based, mouse
[5] = tested on: patient with persistent moderate/severe AA; assay: Oral tofacitinib in one patient with persistent moderate/severe AA (hair regrowth, safety)
[6] = tested on: ALADIN CTL, IFN and KRT signatures; assay: Skin biopsy gene expression / ALADIN scores in ruxolitinib trial; format: in vivo, human
From the text: Biopsies and peripheral blood were obtained at baseline and after 12 weeks for immune monitoring and molecular studies. Several patients provided additional biopsies at intermediate time points during the course of treatment, and one patient provided an additional sample at week 24. Tissues specimens were fixed and stored in PAXgene Tissue Containers. Total RNA was extracted from skin biopsy specimens harvested during the course of the clinical trial using the PAXgene tissue miRNA kit. Library prep was performed for microarray analysis using Ovation RNA Amplification System V2 and Biotin Encore kits (NuGen Technologies, Inc., San Carlos, Calif.). Samples were subsequently hybridized to Human Genome U133 Plus 2.0 chips (Affymetrix, Santa Clara, Calif.) and scanned at the Yale Center for Genome Analysis. Library prep and microarray hybridization of RNA extracted from skin biopsies from three healthy controls were performed together with the samples from the treated patients for a total of 31 samples. Gene expression analyses included calculation of ALADIN scores, differential expression analysis of the expression levels for the identification of gene expression signatures, principal component analysis, and statistical analysis of the ALADIN scores. Microarray data from the 31 samples have been deposited in GEO under accession number GSE80342.
ALADIN scores were calculated for all […] using the batch corrected expression data. The CTL, IFN, and KRT ALADIN scores were determined following procedures outlined previously. Briefly, z-scores are calculated for each PSID relative to the mean and standard deviation of normal controls. Scores for each gene are obtained by averaging z-scores of PSIDs mapping to that gene. Signature scores are then calculated averages of the scores for genes belonging to the corresponding signature.
In order to examine possible differences between each of the CTL, IFN, and KRT ALADIN scores in responders and non-responders, in responders and normal controls and in non-responders and normal controls, the inventors tested for differences among the three groups using a Kruskal-Wallis test, followed by Wilcoxon Rank Sum tests as implemented in the coin package in R. The inventors then examined the change between baseline and ALADIN scores at 12 weeks for responders using Wilcoxon Signed Rank test as implemented in the coin package in R. The inventors further tested for differences in the three scores between responders at 12 weeks and normal controls.

[7] = tested on: patients with moderate to severe AA; assay: Open-label trial of oral ruxolitinib in 12 patients with moderate to severe AA: hair regrowth (SALT); format: in vivo, human
From the text: (§2) The study's primary efficacy endpoint was the proportion of responders at end of treatment, defined as those subjects achieving at least 50% regrowth compared to baseline assessed by the Severity of Alopecia Tool (SALT) score, a standardized, validated method for estimating hair loss in AA. Secondary efficacy endpoints included hair re-growth as a continuous variable. […] To assess response durability, responders were followed for 3 months after treatment was completed. Safety analysis was included as a secondary endpoint for all subjects who received at least one dose of ruxolitinib and was monitored as described at monthly visits.

[8] = tested on: patients with moderate to severe AA; assay: Adverse events in ruxolitinib trial; conditions: in vivo
From the text: as §2
Adverse events were assessed at every monthly visit. Patients were also encouraged to contact the study center in the interim between visits if they developed new signs or symptoms of concern.

[9] = tested on: patients with moderate to severe AA; assay: Oral ruxolitinib in three patients with moderate to severe AA (hair regrowth, biopsies); format: in vivo, human
Procedure: Skin punch biopsies (4 mm) were obtained at baseline and after 12 weeks of treatment.
For immunohistochemical studies of human skin, 5 μM formalin fixed and paraffin skin section were used. […] ImmPRESS HRP Anti Rabbit Ig or Mouse Ig (Peroxidase) Polymer (Vector Lab) were used as secondary antibody.
The IFN and CTL signatures were used to develop a bivariate score statistic. Individual signature IFN and CTL scores were determined following procedures used in human SLE. The sets of genes selected to comprise the IFN and CTL signatures were CD8A, GZMB, and ICOS for the CTL signature, and CXCL9, CXCL10, CXCL11, STAT1, and MX1 for the IFN signature.

[10] = systemic therapy initiated 7 weeks after grafting

Q: Which “IFN and CTL signatures (ALADIN)” value [1] does the source give for `C[C@@H]1CCN(C(=O)CC#N)C[C@@H]1N(C)c1ncnc2[nH]ccc12` [tofacitinib] here?
A: decreased by 4 weeks of treatment, although not to the level of normal controls

Q: And the “serum levels of CXCL10” value (CXCL10)?
A: decreased after 4 weeks of treatment

Q: And the “killing of dermal sheath cells” value (dermal sheath cells)?
A: blocked

Q: And the “AA development in grafted recipients” value (C3H/HeJ grafted mice)?
A: prevented the development of AA

Q: And the “CD8+NKG2D+ T cells in the skin (infiltration, accumulation, expansion)” value (C3H/HeJ grafted mice)?
A: prevented

Q: And the “persistence of effects after the cessation of treatment” value ([2]; systemic therapy)?
A: 2-3 months

Q: What about the “frequency of CD8+NKG2D+ T cells” value [2, 10] of the same molecule?
A: reduced the frequency of CD8+NKG2D+ T cells

Q: And the hair regrowth [2, 10]?
A: substantial hair regrowth all over the body

Q: And the histological markers [2, 10]?
A: reversed histological markers

Q: What about the “reversal of disease in treated lesions” value [3] of the same molecule?
A: highly effective in reversing disease in treated lesions

Q: What about the “IL-15-induced upregulation of granzyme B and IFN-γ expression” value [4] of the same molecule?
A: blocked

Q: And the “IL-15-triggered pSTAT5 activation” value ([4]; cultured CTL effectors)?
A: blocked

Q: What about the “hair loss 8 weeks following cessation of treatment” value ([5]; FIG. 16 left panel) of the same molecule?
A: Minimal hair loss

Q: What about the “hair loss 16 weeks following cessation of treatment” value ([5]; FIG. 16 right panel) of the same molecule?
A: almost complete loss of scalp hair

Q: And the “outcome after cessation of treatment” value ([5]; human, in vivo)?
A: near-complete hair loss

Q: And the adverse events ([5]; oral 5 mg twice daily)?
A: no adverse events reported

Q: And the “hair regrowth at month 1” value ([5]; oral 5 mg twice daily)?
A: Patchy regrowth

Q: And the “laboratory abnormalities (complete blood count, complete metabolic panel, lipid profile)” value ([5]; oral 5 mg twice daily)?
A: no laboratory abnormalities

Q: And the “regrowth of eyebrows and eyelashes” value ([5]; oral 5 mg twice daily)?
A: Significant regrowth

Q: What about the “scalp hair regrowth 4 months after initiating treatment” value ([5]; oral 5 mg twice daily) of the same molecule?
A: nearly complete

Q: And the “scalp hair regrowth after three months of treatment” value ([5]; oral 5 mg twice daily)?
A: 94%

Q: What about the “scalp hair regrowth after two months of treatment” value ([5]; oral 5 mg twice daily) of the same molecule?
A: 62.5%

Q: How did the “CTL score at week 12, overall” value ([6]; all patients, baseline 8.30, p<0.004) turn out when `N#CC[C@H](C1CCCC1)n1cc(-c2ncnc3[nH]ccc23)cn1` [ruxolitinib] was run?
A: 1.51

Q: What about the “IFN score at week 12, overall” value ([6]; all patients, baseline 31.08, p<0.004) of the same molecule?
A: −0.37

Q: What about the “KRT score at week 12, overall” value ([6]; all patients, baseline −39.36, p=0.054) of the same molecule?
A: −15.02

Q: What about the “CTL score at week 12, responders only” value ([6]; baseline 9.37, p<0.008) of the same molecule?
A: 1.6

Q: And the “IFN score at week 12, responders only” value ([6]; baseline 38.37, p<0.008)?
A: 0.24

Q: What about the “KRT score at week 12, responders only” value ([6]; baseline −37.84, p=0.039) of the same molecule?
A: −15.42

Q: And the “earliest time decreased IFN and CTL scores were demonstrable after the initiation of treatment” value ([6]; post-treatment biopsies)?
A: 2 weeks

Q: And the “proportion of patients achieving the primary outcome of at least 50% regrowth” value ([7]; 20 mg PO twice daily, 3 to 6 months, nine of twelve patients)?
A: 75%

Q: What about the “mean SALT score at 3 months” value ([7]; baseline 65.8±28.0%) of the same molecule?
A: 24.8±22.9%

Q: What about the “mean SALT score at the end of 6 months of treatment” value ([7]; baseline 65.8±28.0%, p<0.004) of the same molecule?
A: 7.3±13.5%

Q: What about the “average hair regrowth at the end of treatment” value ([7]; nine responding patients) of the same molecule?
A: 92%

Q: What about the “reduction in hair loss from baseline, responders as a group” value ([7]; responders) of the same molecule?
A: 92%

Q: And the URI/allergy symptoms ([8]; human)?
A: 9 episodes

Q: What about the GI symptoms [8] of the same molecule?
A: mild GI symptoms

Q: What about the UTI [8] of the same molecule?
A: one UTI

Q: And the “acne or scalp folliculitis” value [8]?
A: Two patients developed lesions consistent with acne or scalp folliculitis

Q: What about the bacterial skin infections [8] of the same molecule?
A: three minor bacterial skin infections (in the same patient)

Q: What about the conjunctival hemorrhage [8] of the same molecule?
A: one conjunctival hemorrhage following a surgical procedure

Q: And the discontinuation of therapy [8]?
A: no patients required discontinuation of therapy

Q: And the hemoglobin [8]?
A: One patient developed lowered hemoglobin, which resolved with dose modification

Q: What about the hepatic abnormalities [8] of the same molecule?
A: No hepatic abnormalities were observed

Q: And the platelet counts [8]?
A: No significant decline in platelet counts

Q: What about the pneumonia [8] of the same molecule?
A: one mild pneumonia

Q: And the serious adverse effects [8]?
A: no serious adverse effects

Q: And the “white blood cell counts” value [8]?
A: modest declines of white blood cell counts initially but levels remained within normal limits

Q: And the regrowth achieved ([9]; oral 20 mg BID for at least 3 months)?
A: over 90%

Q: And the “time to near-complete hair regrowth” value ([9]; oral, 20 mg twice daily)?
A: 3 to 5 months
